In patent US20240400606A1, “SMALL MOLECULE ACTIVATORS OF THE IMMUNE SYSTEM” (THE BOARD OF TRUSTEES OF THE UNIVERSITY OF ILLINOIS, priority 2021, published 2024):
Entries after “also recorded” stand apart in the source; their conditions may differ.

Legend:
[1] = tested on: whole cell CS levels in T47D; test: Whole cell cholesterol sulfate quantification, T47D; type: cell-based; conditions: 6.25 μM, 72 hours
Procedure: General Whole Cell Cholesterol Sulfate Quantification. 60×15 mm tissue culture dishes were seeded with MCF-7 at 2×10^6 cells/dish or T47D at 1×10^6 cells per dish, 5 mL total media volume, and allowed to adhere overnight. Compounds of interest were dissolved in DMSO. Cells were treated with 25 μL 1.25 mM compound of interest stock (6.25 μM final compound concentration, 0.5% final DMSO concentration) or DMSO for 72 hours. To harvest, media was aspirated, and cells were washed once with PBS before detaching with trypsin. Trypsin was quenched with media. Cells were centrifuged at 300 xg for 3 minutes and supernatant was discarded. Cells were resuspended in media and counted using a Countess 3 automated cell counter (Thermo Fisher Scientific). 1.5×10^6 cells were collected, washed twice with 1 mL PBS, then pelleted and stored at −80° C. until lysis. […] 100 μL of supernatant was transferred to an empty Eppendorf tube and submitted for LC-MS/MS quantification (UIUC Metabolomics Center), along with 5 mM cholesterol sulfate sodium salt standard.
General LC-MS/MS Quantification Method. Both DHEAS and CS samples were analyzed by 6500 QTRAP (Sciex, Redwood City, CA) liquid chromatography-tandem mass spectrometry. […] Cholesterol-sulfate and DHEA-sulfate were detected by multiple reaction monitoring (MRM) at m/z 465→97.0 and 367.0→97.0 respectively. […]

[2] = Pharmacokinetic mouse studies; type: in vivo, C57BL/6 mice; conditions: for concentration in the serum: mice
Procedure: Pharmacokinetic Analysis. […] Whole blood was collected, centrifuged, and EDTA serum separated for quantification by […] methods (UIUC Metabolomics Center, Urbana, IL).
Pharmacokinetic mouse studies: Compound (3) was formulated in 50% DMSO, 50% Peg400 at 40 mg/mL (for 200 mg/kg injection), Compound was injected intraperitoneally into female C57BL/6 mice (3 per time point). Blood from the mice were harvested at each time point. Serum was separated and concentration in the serum was quantified by LC-MS/MS.

[3] = molecular target: human carbonic anhydrase II (hCAII) (Homo sapiens (Human), UniProt P00918); test: Human carbonic anhydrase II assay; type: biochemical; conditions: concentrations up to 200 μM; listed as IB:10:D
Procedure: Human Carbonic Anhydrase II Assay. Stock solutions of compound of interest (in DMSO), acetazolamide (10 μM in DMSO), hCAII solution (65 μL of 33 μM stock to 1.935 mL hCAII assay buffer to make 1 μM hCAII solution), and 4-nitrophenylacetate (4-NPA; 60 μL of 100 mM DMSO stock to 3 mL hCAII assay buffer to make 2 mM 4-NPA solution). To the wells of a 384-well clear bottom plate were added 1 μL compound of interest or 10 μM acetazolamide. 20 μL of hCAII solution was added to all wells except no enzyme control well, in which case 20 μL hCAII assay buffer was added instead. Plates were incubated for 11 minutes at room temperature before addition of 4-NPA solution to all wells. Absorbance at 348 nm was read every 10 seconds of 11 minute total run time. Three technical replicates were assessed per plate. Controls: hCAII+4-NPA (DMSO added in place of compound of interest, DMSO control), 4-NPA background (no enzyme, DMSO added in place of compound of interest, 4-NPA control), hCAII+4-NPA+acetazolamide (acetazolamide added in place of compound of interest, known hCAII inhibitor).
Percent inhibition calculated as: 100−[100×[(AbSaverage, compound of interest−AbSaverage, 4-NPA)/(AbSaverage, DMSO−AbSaverage, 4-NPA)]].

[4] = female, mouse, 200 mg/kg, C57BL/6 mice, single IP dose, serum

## C[C@]12CCC(=O)N(Cc3ccc(Br)cc3)C1=CC[C@@H]1[C@@H]2C(=O)C[C@]2(C)C(=O)CC[C@@H]12 [Compound 3, (4aR,4bS,6aS,9aS,9bS)-1-(4-bromobenzyl)-4a,6a-dimethyl-3,4,4a,6,6a,8,9,9a,9b,10-decahydro-1H-indeno[5,4-f]quinoline-2,5,7(4bH)-trione]
[1]
  whole cell CS levels vs DMSO: confirmed
[2]; C57BL/6 mice, single IP dose, serum
  CL: 90.56 mL/min/kg
[2]; [4]
  AUC: 36800 ng·h/mL
  Cmax: 19800 ng/mL
  MRT: 1.86 h
  half-life: 77.2 min
[2]; 200 mg/kg intraperitoneally
  concentration in the serum: ~50 µM
[2]; stated as 150 mg/kg IP
  concentration in the serum: ~50 µM

## C[C@]12CCC(=O)N(Cc3ccc(Cl)cc3)C1=CC[C@@H]1[C@@H]2C(=O)C[C@]2(C)C(=O)CC[C@@H]12 [Compound 1, (4aR,4bS,6aS,9aS,9bS)-1-(4-chlorobenzyl)-4a,6a-dimethyl-3,4,4a,6,6a,8,9,9a,9b,10-decahydro-1H-indeno[5,4-f]quinoline-2,5,7(4bH)-trione]
[3]
  inhibition of hCAII: does not inhibit; also recorded: No inhibition
